Experiments:
Assay type in all cases: cell-based, human
[1] = system: MDA MB 231 and SKBr3 breast cancer cells; experiment: induction of ROS, CM-H2DCFDA fluorescence; settings: for induction of cellular ROS: CM-H2DCFDA probe
Protocol: (§1) The following parameters were examined: • 1. Induction of the loss of the mitochondrial transmembrane potential (MTP). […] Induction of reactive oxygen species (ROS). Induced fluorescence from the cell permeable indicators of ROS such as dihydroethidium (specific for superoxide) (FIG. 2), CM-H2DCFDA (most types of ROS) (FIG. 1) and MitoSOX (mitochondrially derived superoxide) (FIG. 3) was studied using a fluorescent plate reader and FACS. • 3. Compounds were also tested for the potential cellular sources of ROS induced using either specific indicators for ROS of mitochondrial origin, and/or specific inhibitors of ROS production by known sources such as mitochondria, ubiquinone oxidoreductase NQO (mitochondrial complex I) and NADPH oxidases. • 4. Compounds were tested for induction of DNA damage using test known as comet assay that allows detection of DNA damage in individual cells. (FIG. 4) • 5. The induction of death in cells treated with the compounds was examined using propidium iodide test for cell permeability followed by analysis on FACS. • 6. The mode of cell death (i.e., apoptosis versus necrosis) was studied using several criteria: conversion of cells to positivity for binding Annexin V; DNA fragmentation (characteristic of apoptotic death) and decrease in cellular ATP levels (commonly observed during necrotic death) (FIG. 5). […]
DCFDA is nonfluorescent in reduced form and is readily membrane-permeant. Cellular esterases cleave its acetate groups. The thiol-reactive chloromethyl group then binds to cellular thiols, trapping the dye inside the cell, where oxidation converts it to the fluorescent form. CM-H2DCFDA is oxidized by cellular hydrogen peroxide, hydroxyl radicals, and various free radical products lying downstream from hydrogen peroxide. It is relatively insensitive to oxidation by superoxide. However, because hydrogen peroxide is produced by dismutation of superoxide, CM-H2DCFDA serves as an indirect indicator of superoxide production.
FIG. 1. […] The indicated compounds were added to cells at 20 μg/ml growth medium, followed by addition of 10 μM CM-H2 DCFDA. Inhibitor of mitochondrial respiration, NaN3, was added at 10 mM. After 30 minute incubation, cells were washed in PBS and analyzed on FACScan for fluorescence.

[2] = system: MDA MB 231 and SKBr3 breast cancer cells; experiment: DNA damage, comet assay
Protocol: as §1

[3] = system: MDA MB 231 and SKBr3 breast cancer cells; experiment: mode of cell death: Annexin V binding, DNA fragmentation
Protocol: The following parameters were examined: • 1. Induction of the loss of the mitochondrial transmembrane potential (MTP). […] Induction of reactive oxygen species (ROS). Induced fluorescence from the cell permeable indicators of ROS such as dihydroethidium (specific for superoxide) (FIG. 2), CM-H2DCFDA (most types of ROS) (FIG. 1) and MitoSOX (mitochondrially derived superoxide) (FIG. 3) was studied using a fluorescent plate reader and FACS. • 3. Compounds were also tested for the potential cellular sources of ROS induced using either specific indicators for ROS of mitochondrial origin, and/or specific inhibitors of ROS production by known sources such as mitochondria, ubiquinone oxidoreductase NQO (mitochondrial complex I) and NADPH oxidases. • 4. Compounds were tested for induction of DNA damage using test known as comet assay that allows detection of DNA damage in individual cells. (FIG. 4) • 5. The induction of death in cells treated with the compounds was examined using propidium iodide test for cell permeability followed by analysis on FACS. • 6. The mode of cell death (i.e., apoptosis versus necrosis) was studied using several criteria: conversion of cells to positivity for binding Annexin V; DNA fragmentation (characteristic of apoptotic death) and decrease in cellular ATP levels (commonly observed during necrotic death) (FIG. 5). 1. Induction of the loss of the mitochondrial transmembrane potential (MTP). […] Induction of reactive oxygen species (ROS). Induced fluorescence from the cell permeable indicators of ROS such as dihydroethidium (specific for superoxide) (FIG. 2), CM-H2DCFDA (most types of ROS) (FIG. 1) and MitoSOX (mitochondrially derived superoxide) (FIG. 3) was studied using a fluorescent plate reader and FACS. • 3. Compounds were also tested for the potential cellular sources of ROS induced using either specific indicators for ROS of mitochondrial origin, and/or specific inhibitors of ROS production by known sources such as mitochondria, ubiquinone oxidoreductase NQO (mitochondrial complex I) and NADPH oxidases. • 4. […]

[4] = system: MDA MB 231 and SKBr3 breast cancer cells; experiment: mitochondrially derived superoxide, MitoSOX
Protocol: (§2) The following parameters were examined: • 1. Induction of the loss of the mitochondrial transmembrane potential (MTP). […] Induction of reactive oxygen species (ROS). Induced fluorescence from the cell permeable indicators of ROS such as dihydroethidium (specific for superoxide) (FIG. 2), CM-H2DCFDA (most types of ROS) (FIG. 1) and MitoSOX (mitochondrially derived superoxide) (FIG. 3) was studied using a fluorescent plate reader and FACS. • 3. Compounds were also tested for the potential cellular sources of ROS induced using either specific indicators for ROS of mitochondrial origin, and/or specific inhibitors of ROS production by known sources such as mitochondria, ubiquinone oxidoreductase NQO (mitochondrial complex I) and NADPH oxidases. • 4. Compounds were tested for induction of DNA damage using test known as comet assay that allows detection of DNA damage in individual cells. (FIG. 4) • 5. The induction of death in cells treated with the compounds was examined using propidium iodide test for cell permeability followed by analysis on FACS. • 6. […] Induced fluorescence from the cell permeable indicators of ROS such as dihydroethidium (specific for superoxide) (FIG. 2), CM-H2DCFDA (most types of ROS) (FIG. 1) and MitoSOX (mitochondrially derived superoxide) (FIG. 3) was studied using a fluorescent plate reader and FACS. • 3. […]

[5] = system: MDA MB 231 and SKBr3 breast cancer cells; experiment: cellular ATP content, ATP bioluminescence assay
Protocol: as §2

[6] = Table 11, confirmed in two breast cancer cell lines

| Structure (SMILES) | induction of cellular ROS [1] | Induction of ROS (fold) [1, 6] [fold] | Induction of ROS (fold) ([1]; Table 12) | induction of DNA damage [2] | cell death and its mode [3] | Induction of ROS (fold) ([1]; Table 11, confirmed in two breast cancer cell lines, listed as cmpd 9) | conversion of MitoSOX, detector of mitochondrially derived superoxide [4] | change in cellular ATP levels [5] |
| --- | --- | --- | --- | --- | --- | --- | --- | --- |
| O=c1cc(-c2ccc(O)cc2)oc2c(O)c(O)cc(O)c12 [Isoscutellarein] | induce ROS, but of extra-mitochondrial origin | 1.5 | 1.5 | induce DNA damage | cell death that has hallmarks of programmed necrosis | – | – | – |
| O=c1cc(-c2ccc(O)cc2)oc2cc(O)cc(O)c12 [Apigenin] | – | – | 1.5 | do not induce DNA damage | induce significant cell death characterized as apoptotic | 1.5 | converted to its fluorescent form | slight but consistent increase in ATP levels |
| O=C1CC(c2ccc(O)cc2)Oc2cc(O)c(O)c(O)c21 (centres unmarked) [Carthamidin] | induce ROS, but of extra-mitochondrial origin | – | – | induce DNA damage | – | – | – | – |
| O=c1cc(-c2ccc(O)cc2)oc2cc(O)cc(O)c12 [cmpd 4] | – | 0.6 | – | – | – | – | – | – |
| O=c1cc(-c2ccc(O)cc2)oc2cc(O)c(O)c(O)c12 [Scutellarein] | induce ROS, but of extra-mitochondrial origin | 2.4 | – | induce DNA damage | cell death that has hallmarks of programmed necrosis | – | – | – |
| O=C1CC(c2ccc(O)cc2)Oc2c(O)c(O)cc(O)c21 (centres unmarked) [Isocarthamidin] | induce ROS, but of extra-mitochondrial origin | – | – | induce DNA damage | – | – | – | – |

Source: patent publication US20100069480A1, “METHODS AND COMPOSITIONS FOR THE TREATMENT OF CANCER” (Bionovo, Inc. A Delaware Corporation, priority 2008, published 2010)
